Results on 35 compounds are retold here after patent US11401255B2, “Small molecule activators of Parkin enzyme function” (Mayo Foundation for Medical Education and Research, priority 2016, dated 2022).

The test system of one series is TA 98. Briefly: Ames Test, strain TA 98. As to conditions: TA 98, positive control 0.1 μg/plate. From the text: (§1) The test used amino acid-dependent strains of Salmonella typhimurium and Escherichia coli to detect point mutations which involved substitution, addition or deletion of one or a few DNA base pairs. Point mutations were introduced in the histidine (Salmonella typhimurium) or the tryptophan (Escherichia coli) operon, making the tester strains incapable of producing these amino acids. The test detected mutations that revert the mutations present in the bacteria, restoring the functional capability to synthesize histidine or tryptophan. The revertant bacteria were detected by the ability to grow in the absence of the amino acid required by the parent test strain. A mutagenic potential of a tested compound was assessed by exposing these bacterial strains to different concentrations of the compounds and estimating number of revertant colonies grown in the absence (trace quantities) of the amino acid.
(§2) DMSO was used as the negative control.
(§3) For each experiment, tester strain cultures were grown overnight in Oxoid nutrient broth #2 at 37° C. with shaking at 235 rpm to a density of 1-2×10^9 colony forming units/mL (OD540˜2).
(§4) The tester strain (10 μL of night culture) was mixed with the test agent (10 µL of the DMSO stock) and GM liquid medium (30 μL). The obtained mixture was incubated at room temperature for 5 min in a sterile 1.5 mL tube. Then, to the tube was added 200 μL of molten top agar stored at 44° C. to prevent solidifying. After mixing with a pipette, the mixture was poured onto the surface of a GM agar plate (2.0 mL of GM agar per plate). After solidifying the top agar, the plate was inverted and incubated at 37° C. for 48 hours. Then, results were expressed as number of revertant colonies per plate.

Another series concerns TA 1537. Briefly: Ames Test, strain TA 1537. Particulars: TA 1537, positive control 7.5 μg/plate (row printed 50; shifted).
Text: as §1, §2, §3, §4

The target of the next series is Parkin (Homo sapiens (Human), UniProt O60260). Briefly: Primary HCI assay of EGFP-Parkin translocation to mitochondria. As to conditions: primary assay screen, Parkin translocation to mitochondria. It counts as cell-based. As for the experimental part: GFP-Parkin is localized throughout the cell in unstressed cells but translocates to mitochondria when the mitochondrial membrane potential is compromised and Parkin is activated. After automated image acquisition of fixed cells, regions of interest of each cell were defined with the analysis software. […] To quantify the relocalization of GFP-Parkin to mitochondria, the ratio of the GFP intensity in the cytoplasm and the nucleus was calculated. Under non-stressed condition, this ratio is about 1. FIG. 1B is a bar graph showing the results of the assay with a Z factor (Z′) of 0.5-0.8, which indicates its robustness and usefulness as a screening assay. Validation of the assay has been performed by using PINK1 siRNA.
Chain of Parkin (O60260 whole entry): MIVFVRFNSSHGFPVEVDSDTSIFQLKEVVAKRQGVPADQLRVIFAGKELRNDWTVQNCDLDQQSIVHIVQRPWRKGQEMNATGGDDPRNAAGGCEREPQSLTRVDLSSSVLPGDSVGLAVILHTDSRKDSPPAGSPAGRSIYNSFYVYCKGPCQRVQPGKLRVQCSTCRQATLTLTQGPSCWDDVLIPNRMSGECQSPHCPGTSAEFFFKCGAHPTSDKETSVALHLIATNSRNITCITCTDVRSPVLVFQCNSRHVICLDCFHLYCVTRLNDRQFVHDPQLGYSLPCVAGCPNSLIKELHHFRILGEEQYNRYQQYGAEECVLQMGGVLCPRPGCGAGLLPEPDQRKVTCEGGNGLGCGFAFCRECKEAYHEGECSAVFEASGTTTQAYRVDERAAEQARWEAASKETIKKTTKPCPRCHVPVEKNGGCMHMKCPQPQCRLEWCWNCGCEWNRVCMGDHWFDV
FIGS. 2A-2C show a primary HCI assay with CCCP titration. FIG. 2A is a graphic description of the primary HCI assay of EGFP-Parkin translocation. HeLa cells stably expressing GFP-Parkin were seeded with 1350 cells per well in 384-well plates (25 μL per well). Cells were allowed to attach overnight before drug was added 2× concentrated in a volume of 25 μL in triplicates. After 2 h, 50 μL of a 2× low-dose CCCP (yielding a final concentration of 3.5 μM CCCP) was added to all wells that contained test compounds and for the negative control. For positive control wells, CCCP was added in a final concentration of 10 μM. After 2 h incubation with CCCP, cells were fixed and labeled with Hoechst for at least 1 h before cells were imaged. […] Values were being normalized to negative and positive control values and plotted as % activity. Z′ was calculated for quality control. Positive controls were indicated in green, negative control wells in red. Drugs that lead to more than 50% activity are considered positive (blue).
Functional testing of compounds was performed using an established primary HCI assay for Parkin translocation, which correlates well with enzymatic activation (Fiesel et al., J. Cell Science (2014) 127:3488-3504; Fiesel et al., Human Mutation (2015) 36:774-786). In brief, 1400 HeLa cells stably expressing EGFP-Parkin were seeded into optical 384-well plates (Greiner BioOne) in 25 μL media and allowed to adhere for 40 h. Compounds 1, 2, 3, 4, and 31 were added to the plate as 2× concentrated stocks. Control wells were treated with equal volume of DMSO in media. After 2 h, unless otherwise stated, CCCP was added as 2× concentrated stock with a final assay concentration of 10 μM for PC wells and 3.5 μM for test and NC wells. This low dose of CCCP was experimentally determined by a dose response curve of CCCP to result in no Parkin translocation (FIG. 13). After another 2 h, cells were fixed in 4% paraformaldehyde for 10 min and stained with Hoechst 33342 (1:5000, Invitrogen) before plates were imaged and analyzed.
Image acquisition was performed on a BD Pathway 855 with the Attovision V1.6 software (BD Biosciences). Wells were imaged with a 20× objective using a 2×2 montage with laser autofocus. EGFP exposure time was 0.0175 sec, Hoechst 0.0015 sec. Raw images were not processed and directly analyzed using a build-in ‘RING—2 output’ algorithm. Values were exported and normalized using JMP 11 software and transferred to GraphPad Prism 7 for quality control, graphing and curve fitting for DRCs with a variable slope using four parameters. […] Values were normalized to both PC and NC values from 24 wells each per plate and the Z′ score was calculated. Plates with Z′<0.5 were repeated.

Another series has as its target CYP 2C9 (Homo sapiens (Human), UniProt P11712). Nature of the series: P450-Glo CYP450 inhibition, CYP 2C9. As to conditions: human, P450-Glo Assay System (Promega), CYP 2C9 membranes, CYP 2C9, reference inhibitor 120 uM. It counts as in vitro ADME. The method, then: CYP450 inhibition profiling provides valuable information regarding any possible drug-drug interactions for a test compound.
All experiments were performed using P450-Glo™ Assay Systems (Promega) in accordance with the manufacturer's protocols. The P450-Glo™ Assays provide a luminescent readout-based method for measuring cytochrome P450 activity. A conventional cytochrome P450 reaction was performed by incubating the cytochrome P450 and a luminogenic cytochrome P450 substrate. The substrates in the P450-Glo™ assays are derivatives of beetle luciferin. The derivatives themselves are not substrates for luciferase but are converted by cytochrome P450s to luciferin, which in turn reacts with luciferase to produce light. The amount of light produced was directly proportional to cytochrome P450 activity. All test points were performed in quadruplicates. Control membranes (without CYPs) represented the Negative control (baseline).
The following reference compounds were used to assess CYP inhibition: […]

Chain of CYP 2C9 (P11712 whole entry): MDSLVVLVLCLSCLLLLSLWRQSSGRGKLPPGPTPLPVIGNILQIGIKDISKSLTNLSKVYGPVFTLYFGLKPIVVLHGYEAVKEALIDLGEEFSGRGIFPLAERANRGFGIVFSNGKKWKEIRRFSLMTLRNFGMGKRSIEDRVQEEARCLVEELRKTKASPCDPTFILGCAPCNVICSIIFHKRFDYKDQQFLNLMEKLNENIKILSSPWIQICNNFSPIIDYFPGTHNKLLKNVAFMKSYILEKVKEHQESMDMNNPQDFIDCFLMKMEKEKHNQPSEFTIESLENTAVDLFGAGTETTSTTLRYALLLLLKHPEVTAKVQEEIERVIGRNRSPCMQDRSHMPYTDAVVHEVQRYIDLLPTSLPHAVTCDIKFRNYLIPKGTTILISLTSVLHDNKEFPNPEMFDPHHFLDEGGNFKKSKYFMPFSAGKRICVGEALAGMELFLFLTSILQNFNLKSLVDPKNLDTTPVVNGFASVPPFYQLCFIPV

As for `O=[N+]([O-])c1ccc2c(c1)Cc1ccccc1-2` [2-nitrofluorene, reference compound], the “Mean ± SD” value in the series with TA 98 is on record as 7 ± 1.41 revertant colonies per plate.
`Nc1c2ccccc2nc2ccccc12` [9-aminoacridine, reference compound]: the “Mean ± SD” value in the series with TA 1537 was 1119 ± 21.21 revertant colonies per plate.
For orientation: EC50 means the concentration giving half of the maximal effect. Low values mean a more potent agent, high ones a less potent agent. On Parkin, `O=C(Cn1ccnc1)Nc1ccc(-c2ccccc2)c(Cl)c1` [Compound 6] displayed a 50% effective concentration (EC50) of 2 µM.
Same read-out and setting: in the case of `O=C(Cn1ccnc1)Nc1ccc(OCC2CCCCC2)cc1` [Compound 8] it was 5 µM; in that of `O=C(Cn1ccnc1)Nc1ccc(CN2CCc3ccccc32)cc1` [Compound 9], 5 µM.
The compound `O=C(Cn1ccnc1)Nc1ccc(C23CC4CC(CC(C4)C2)C3)cc1` [Compound 10] displayed an EC50 on Parkin of 5 µM.
The same measure, in the same setting: in the case of `O=C(Cn1ccnc1-c1ccncc1)Nc1ccc(-c2ccccc2)cc1` [Compound 11] it was 5 µM; in that of `O=C(Cn1ccnc1)Nc1ccc(-c2ccccc2)c(C(F)(F)F)c1` [Compound 12], 5 µM; in that of `O=C(Cn1ccnc1)Nc1nc(-c2ccccc2)co1` [Compound 13], 5 µM.
Still for that read-out and setting: to `O=C(Cn1ccnc1)Nc1ccc(Oc2ccccc2)cc1` [Compound 14] belongs 5 µM.
The same measure, in the same setting: in the case of `O=C(Cn1ccnc1)Nc1ccc(COC2CCCC2)cc1` [Compound 15] it was 5 µM; in that of `N#Cc1ccc(Oc2ccc(NC(=O)Cn3ccnc3)cc2)cc1` [Compound 16], 5 µM; in that of `CC(C)Cc1ccc(NC(=O)Cn2ccnc2)cc1` [Compound 17], 5 µM.
On to `O=C(Cn1ccnc1)Nc1ccc(SC2CCCC2)cc1` [Compound 18], for which it took 5 µM to reach a half-maximal effect on Parkin (EC50). That is a single-digit micromolar value.
On the same count and under the same terms, in the case of `Cc1nccn1CC(=O)Nc1ccc(-c2ccccc2)cc1` [Compound 19] it was 10 µM; in that of `O=C(Cc1ccncc1)Nc1ccc(-c2ccccc2)cc1` [Compound 20], 10 µM.
Still for that read-out and setting: to `O=C(Nc1ccc(-c2ccccc2)cc1)c1cn2c(n1)CCCC2` [Compound 21] belongs 0.238 µM; to `O=C(Cn1cnc2c1CCCC2)Nc1ccc(-c2ccccc2)cn1` [Compound 22], 0.246 µM.
The same measure, in the same setting: in the case of `O=C(Cn1cnc2c1CCCC2)Nc1ccc(-c2ccccn2)cc1` [Compound 23] it was 0.272 µM; in that of `Cc1nccc(-c2ccc(NC(=O)Cn3cnc4c3CCCC4)cc2)n1` [Compound 24], 0.19 µM; in that of `O=C(Cn1cnc2c1CCCC2)Nc1ccc(-c2ccccc2F)nn1` [Compound 25], 0.382 µM.
In turn, `O=C(Cn1cnc2c1CCCC2)Nc1cnc(-c2ccccc2)nc1` [Compound 26] displayed an EC50 on Parkin of 0.938 µM. This EC50 is about 2.5-fold higher than that of the compound before.
The same measure, in the same setting: in the case of `Cc1ccnc(-c2ccc(NC(=O)Cn3cnc4c3CCCC4)cc2)n1` [Compound 27] it was 0.19 µM; in that of `Cc1cc(NC(=O)Cn2cnc3c2CCCC3)ccc1-c1ccncc1` [Compound 28], 0.134 µM.
The same measure, in the same setting: in the case of `O=C(Cn1ccnc1-c1ccccc1)Nc1ccc(-c2ccccc2)cc1` [Compound 29] it was 2 µM; in that of `Cc1cc(NC(=O)Cn2ccnc2)ccc1-c1ccccc1` [Compound 30], 5 µM; in that of `Cc1nc2c(c(N3CCCN(Cc4csc(C)n4)CC3)n1)CCCC2` [Compound 35], 10 µM.
`COc1ccc(CN2CCCN(c3ncnc4c3CN(C)CC4)CC2)cc1` [Compound 36] registered an EC50 at Parkin of more than 10 µM.
The same measure, in the same setting: in the case of `Cc1nc2c(c(N3CCN(C(=O)c4ccccc4)CC3)n1)CCCC2` [Compound 40] it was more than 10 µM; in that of `Cc1nc2c(c(N3CCCN(Cc4noc(C5CC5)n4)CC3)n1)CCCC2` [Compound 42], 0.707 µM.
The same measure, in the same setting: to `Cc1nc2c(c(N3CCCN(Cc4cccs4)CC3)n1)CCCC2` [Compound 43] belongs 0.28 µM; to `Cc1nc2c(c(N3CCN(Cc4ccccc4)C(C)(C)C3)n1)CCCC2` [Compound 44], 0.438 µM.
Still for that read-out and setting: to `Cc1nc2c(c(N3CCCN(Cc4ccc(Cl)cc4)CC3)n1)CCCC2` [Compound 45] belongs 0.366 µM; to `c1ccc(CN2CCCN(c3ncnc4ncccc34)CC2)cc1` [Compound 46], 0.203 µM.
Usually inhibition stands for the share of the control response that was lost under treatment. Low readings indicate a weak effect, high ones a strong effect. For `OC(Cn1cncn1)(Cn1cncn1)c1ccc(F)cc1F` [fluconazole, reference compound], at CYP 2C9, the inhibition at 120 µM stood at 84.5%.
